From patent US20040247607A1, “Use of surfactants to stabilize oocysts” (priority 1999, published 2004)

Tested on: oocysts
Assay: Evaluation of naturally derived surfactants for decreasing and preventing oocyst aggregation
Text: In one aspect, the present invention provides a method for evaluating the ability of a surfactant to prevent aggregation of oocysts, sporocysts, and/or sporozoites. The method comprises adding a surfactant to a composition that comprises oocysts, sporocysts, sporozoites, or any combination thereof, at a concentration sufficient to prevent aggregation of the oocysts, sporocysts, and/or sporozoites (i.e. a test concentration). The resulting composition is then agitated, for example, by shaking manually or via an automatic shaker. As previously described, agitating the composition exposes the oocysts, sporocysts, and/or sporozoites to air or other gases, and promotes aggregation. After agitation, the composition is evaluated to determine whether any aggregation has occurred. Preferably, evaluation occurs by visually observing the composition for the presence of aggregated oocysts, sporocysts, and/or sporozoites. […]
In another aspect, the present invention provides a method for evaluating the ability of a surfactant to reduce oocyst, sporocyst, and/or sporozoite aggregation. […] Upon addition of the surfactant, the resulting composition is agitated, as previously described, and then evaluated to determine whether the aggregation has been reduced or eliminated entirely by addition of the surfactant. […]

Substance: casein
- decreasing and preventing aggregation of oocysts: effective

Substance: serum albumin
- decreasing and preventing aggregation of oocysts: effective
